Data taken from patent publication US12600698B2, “Kinase inhibitors” (Vidya Therapeutics, Inc., priority 2021, dated 2026).

Each molecule was assayed against T1, BTK (Homo sapiens, UniProt Q06187) (assay: Assay to determine BTK inactivation rate (active site probe ELISA, human whole blood)). Conditions: 37° C., 5-60 minutes, read-out: BTK hWB (Kinact/Ki).
Format: cell-based
Design: tissue StemExpress; host or cells: human whole blood
Method: This example employed a BTK active site probe-based assay using a biotinylated covalent inhibitor in human and mouse blood or mouse brain lysate.
Human whole blood was obtained from StemExpress (Stockton, CA) and kept at ambient temperature until the time of the experiment, which was approximately 24 hours after it had been collected. • 1. A 1× lysis buffer was prepared by using 10× lysis buffer (Cell Signaling Technology, #9083S, Danvers, MA), molecular biology grade water, 100× Halt Protease and Phosphatase Inhibitor Cocktail, (ThermoFisher, #78440, Waltham, MA), and BTK active site probe (final: 0.4 μM). This was prepared fresh each experimental day. • 2. Lysis buffer was added in the volume of 30 μL to all wells in a V-bottom plate (Greiner Bio-One, #651261, Monroe, NC) in preparation for timepoint collections. • 3. Compounds were reconstituted to stocks of 10 mM in 100% DMSO and were diluted in 2-fold serial dilutions to generate an 8-point curve in DMSO, with the last point being DMSO only. • 4. A working 10× dilution series was created using 1 μL of the prepared DMSO titration into […] 1×PBS in order to keep the DMSO constant (0.03% DMSO final). • 5. The whole blood was added in the volume of 225 μL per well in a new 96 w v-bottom plate. • 6. For compound treatment, 25 μL of the 10× dilution series in PBS was added to the 225 μL whole blood, followed by briefly pipetting up and down, twice. • 7. The plates were then covered with plastic lids and incubated at 37° C. for 5, 10, 15, 30, 60 minutes. • 8. At each timepoint, 30 μL of compound- or DMSO (vehicle)-treated blood is pulled from each column and added to preloaded collection plates that contained 30 μL of lysis buffer supplemented with BTK active site probe. Samples were then mixed briefly by pipetting up and down, twice. • 9. The plates with collected and lysed samples were shaken and covered with sealing film on a rotator for 60 minutes at room temperature. These samples were used fresh for detection via ELISA, and remaining sample was frozen at −80° C. if a repeat was necessary. Determining Amount of Unoccupied BTK Using ELISA • 1. All streptavidin pre-coated plates (R&D Systems, #CP004, Minneapolis, MN) were brought to room temperature while samples are lysing. • 2. Assay Buffer 1, 1×PBS+0.05% Tween 20+1% BSA was prepared, filtered, and stored at 4° C. when not in use. • 3. Using this Assay Buffer 1, assay buffer+1× protease/phosphatase inhibitor cocktail (PICS) was prepared in the amount needed for all samples. • 4. Assay Buffer+PICS in the volume of 90 μL/well was added to the ELISA plate for blood samples. • 5. Assay Buffer+PICs in the volume of 50 μL/well was added to the ELISA plate for brain samples. • 6. Lysed blood sample (10 μL) was added to the ELISA plate. • 7. Lysed brain sample (50 μL) was added to the ELISA plate. • 8. Samples were loaded into the ELISA plate for a total of 100 μL/well, in duplicate, and remained in the plate, sealed, overnight at 4° C. • 9. The following day, the plate was washed three times with 1× Wash Buffer (1×PBS+0.05% Tween 20) at 250 μL/well using a plate washer. • 10. The plate was inverted to expel all fluid each time and blotted on clean paper towels to remove remaining liquid. • 11. Assay Buffer 2 was prepared (1×PBS+0.05% Tween 20+0.5% BSA) and kept at 4° C. when not in use. • 12. The primary antibody α-BTK (clone D3H5, Cell Signaling Technology #8547S Danvers, MA) was diluted 1:500 in Assay Buffer 2. • 13. Diluted a-BTK antibody was added at 100 μL/well. • 14. The plate was covered with adhesive film and incubated for 90 minutes at room temperature. • 15. The plate was washed three times with 1× Wash Buffer at 250 μL/well using a plate washer. • 16. The plate was inverted to expel all fluid each time and blotted on clean paper towels to remove remaining liquid. • 17. The detection antibody (Jackson Immuno Research, #711-005-152) was diluted 1:2,500 with Assay Buffer 2. • 18. The diluted antibody was added at 100 μL/well. • 19. […]

T1 sequence (Q06187 whole entry): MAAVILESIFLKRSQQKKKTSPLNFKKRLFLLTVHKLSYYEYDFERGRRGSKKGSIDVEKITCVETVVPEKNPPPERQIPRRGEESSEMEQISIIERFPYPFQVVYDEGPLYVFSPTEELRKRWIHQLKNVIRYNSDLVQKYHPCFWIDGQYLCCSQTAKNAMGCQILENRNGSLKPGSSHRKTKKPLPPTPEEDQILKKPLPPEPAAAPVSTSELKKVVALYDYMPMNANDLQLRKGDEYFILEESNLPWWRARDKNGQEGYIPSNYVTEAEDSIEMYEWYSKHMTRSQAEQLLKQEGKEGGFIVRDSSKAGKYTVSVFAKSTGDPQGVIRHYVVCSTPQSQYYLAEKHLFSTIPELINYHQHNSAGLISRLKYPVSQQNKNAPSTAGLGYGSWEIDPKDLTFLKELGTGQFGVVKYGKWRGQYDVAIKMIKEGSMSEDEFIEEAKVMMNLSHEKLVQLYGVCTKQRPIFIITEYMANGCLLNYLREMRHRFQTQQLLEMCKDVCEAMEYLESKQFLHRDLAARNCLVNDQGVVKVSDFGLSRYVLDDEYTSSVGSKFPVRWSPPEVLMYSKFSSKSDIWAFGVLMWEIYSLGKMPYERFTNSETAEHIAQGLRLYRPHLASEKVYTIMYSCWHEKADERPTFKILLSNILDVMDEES

Row | kinact/KI [M⁻¹ s⁻¹] | Compound
1 | < 8330 | CC#CC(=O)N[C@@H]1CCC[C@H](c2c(F)cc(C(N)=O)c3[nH]c(C)c(Cl)c23)C1 (relative stereo) [Compound 6-(cis), 4-((cis)-3-(but-2-ynamido)cyclohexyl)-3-chloro-5-fluoro-2-methyl-1H-indole-7-carboxamide]

What follows are molecules tested against T1, BTK (assay: BTK IC50 (EZ reader kinase assay)). Conditions: ATP 1 mM, BTK 2 nM, 90 minutes at room temperature.
Format: biochemical
Design: purchased Carna
Method: Solutions of compounds (test or control) in DMSO were prepared at the desired concentrations, and serially diluted to 11 concentrations by 3-fold dilution in 384pp-plate using TECAN EVO200. 20 nL of stock were transferred to 384 plate using Echo550. DMSO was used as vehicle control.
Two separate solutions were prepared—an ATP solution containing MgCl2 (10 mM), Brij-35 (0.01%), DTT (2 mM), BSA (0.05%), EGTA (1 mM), HEPE (pH7.5) (50 mM), FLPeptide (6 uM) and ATP (4 mM); and a BTK solution containing MgCl2 (10 mM), Brij-35 (0.01%), DTT (2 mM), BSA (0.05%), EGTA (1 mM), HEPE (pH7.5) (50 mM) and BTK (2.67 nM). (BTK was obtained from Carna; FLPeptide2 was obtained from PerkinElmer and Ibrutinib was obtained from Selleck.) 5 uL of ATP solution were added to each well, followed by addition of 15 uL of BTK solution to initiate the reaction. (Note the final volume of each well was 20 uL containing MgCl2 (10 mM), Brij-35 (0.01%), DTT (2 mM), BSA (0.05%), EGTA (1 mM), HEPE (pH7.5) (50 mM), FLPeptide (1.5 uM), ATP (1 mM) and BTK (2 nM). The plates were incubated at room temperature for 90 minutes and then stopping buffer added (75 uL, containing 0.5 M EDTA) to terminate the reaction. Samples from each well were analyzed using EZ reader.
The % remaining activity was calculated using read conversion ratio (CR) according to the equation: […]
XLFit (equation 201) was used to calculate IC50's by floating both bottom and top.
BTK IC50 values are provided in Table 5, for the compounds described in Examples 1-13, wherein: • “A” denotes an IC50<1 nM; • “B” denotes an IC50 1-10 nM; and • “C” denotes an IC50>10 nM.

Row | Compound | IC50 [µM]
2 | CC#CC(=O)NC1C=C(c2c(F)cc(C(N)=O)c3[nH]c(C)c(Cl)c23)CCC1 (racemic) [5B(rac), 4-(3-(but-2-ynamido)cyclohex-1-en-1-yl)-3-chloro-5-fluoro-2-methyl-1H-indole-7-carboxamide] | 0.001 to 0.01
3 | CC#CC(=O)N[C@H]1CCC[C@H](c2c(F)cc(C(N)=O)c3[nH]c(C)c(Cl)c23)C1 (relative stereo) [Compound 6-(trans), 4-((trans)-3-(but-2-ynamido)cyclohexyl)-3-chloro-5-fluoro-2-methyl-1H-indole-7-carboxamide] | 0.001 to 0.01
4 | CC#CC(=O)N(C)[C@H]1CCC=C(c2c(F)cc(C(N)=O)c3[nH]c(C)c(C)c23)C1 [4A(S), (S)-5-fluoro-2,3-dimethyl-4-(5-(N-methylbut-2-ynamido)cyclohex-1-en-1-yl)-1H-indole-7-carboxamide] | 0.001 to 0.01
5 | CC#CC(=O)N(C)[C@@H]1C=C(c2c(F)cc(C(N)=O)c3[nH]c(C)c(C)c23)CCC1 [4B(S), (S)-5-fluoro-2,3-dimethyl-4-(3-(N-methylbut-2-ynamido)cyclohex-1-en-1-yl)-1H-indole-7-carboxamide] | 0.001 to 0.01
6 | CC#CC(=O)N[C@@H]1CCC[C@@H](c2c(F)cc(C(N)=O)c3[nH]c(C)c(Cl)c23)C1 [6-(1R,3R), 4-((1R,3R)-3-(but-2-ynamido)cyclohexyl)-3-chloro-5-fluoro-2-methyl-1H-indole-7-carboxamide] | > 0.01
7 | CC#CC(=O)N[C@@H]1CC[C@H](c2c(F)cc(C(N)=O)c3[nH]c(C)c(C)c23)C1 [13-(1S,3R), 4-((1S,3R)-3-(but-2-ynamido)cyclopentyl)-5-fluoro-2,3-dimethyl-1H-indole-7-carboxamide] | > 0.01
8 | CC#CC(=O)N[C@H]1CCC[C@H](c2c(F)c(F)c(C(N)=O)c3[nH]c(C)c(C#N)c23)C1 [Compound 7-(1S,3S), 4-((1S,3S)-3-(but-2-ynamido)cyclohexyl)-3-cyano-5,6-difluoro-2-methyl-1H-indole-7-carboxamide] | > 0.01
9 | CC#CC(=O)N[C@@H]1CCC[C@@H](c2c(F)c(F)c(C(N)=O)c3[nH]c(C)c(F)c23)C1 [Compound 8-(1R,3R), 4-((1R,3R)-3-(but-2-ynamido)cyclohexyl)-3,5,6-trifluoro-2-methyl-1H-indole-7-carboxamide] | 0.001 to 0.01
10 | CC#CC(=O)N[C@@H]1CCC[C@H](c2c(F)c(F)c(C(N)=O)c3[nH]c(C)c(F)c23)C1 [Compound 8-(1S,3R), 4-((1S,3R)-3-(but-2-ynamido)cyclohexyl)-3,5,6-trifluoro-2-methyl-1H-indole-7-carboxamide] | > 0.01
11 | CC#CC(=O)N[C@@H]1CCC[C@@H](c2c(F)c(F)c(C(N)=O)c3[nH]c(C)c(C)c23)C1 [Compound 9-(1R,3R), 4-((1R,3R)-3-(but-2-ynamido)cyclohexyl)-5,6-difluoro-2,3-dimethyl-1H-indole-7-carboxamide] | > 0.01
12 | CC#CC(=O)N[C@@H]1CCC[C@H](c2c(F)c(F)c(C(N)=O)c3[nH]c(C)c(C)c23)C1 [Compound 9-(1S,3R), 4-((1S,3R)-3-(but-2-ynamido)cyclohexyl)-5,6-difluoro-2,3-dimethyl-1H-indole-7-carboxamide] | 0.001 to 0.01

Second part, the molecule after the results:

Row | IC50 [µM] | Compound
13 | 0.001 to 0.01 | CC#CC(=O)NC1CCC=C(c2c(F)cc(C(N)=O)c3[nH]c(C)c(Cl)c23)C1 (racemic) [1A(rac), 4-(5-(but-2-ynamido)cyclohex-1-en-1-yl)-3-chloro-5-fluoro-2-methyl-1H-indole-7-carboxamide]
14 | 0.001 to 0.01 | CC#CC(=O)N[C@@H]1CCC[C@H](c2c(F)cc(C(N)=O)c3[nH]c(C)c(Cl)c23)C1 (relative stereo) [Compound 6-(cis), 4-((cis)-3-(but-2-ynamido)cyclohexyl)-3-chloro-5-fluoro-2-methyl-1H-indole-7-carboxamide]
15 | 0.001 to 0.01 | CC#CC(=O)N[C@H]1C=C(c2c(F)cc(C(N)=O)c3[nH]c(C)c(Cl)c23)CCC1 [5B(R), (R)-4-(3-(but-2-ynamido)cyclohex-1-en-1-yl)-3-chloro-5-fluoro-2-methyl-1H-indole-7-carboxamide]
16 | > 0.01 | CC#CC(=O)N[C@H]1CCC[C@H](c2c(F)c(F)c(C(N)=O)c3[nH]c(C)c(Cl)c23)C1 [11-(1S,3S), 4-[(1S,3S)-3-(but-2-ynoylamino)cyclohexyl]-3-chloro-5,6-difluoro-2-methyl-1H-indole-7-carboxamide]
17 | > 0.01 | CC#CC(=O)N[C@H]1CC[C@H](c2c(F)cc(C(N)=O)c3[nH]c(C)c(C)c23)C1 [12-(1S,3S), 4-((1S,3S)-3-(but-2-ynamido)cyclopentyl)-5-fluoro-2,3-dimethyl-1H-indole-7-carboxamide]
18 | 0.001 to 0.01 | CC#CC(=O)N[C@H]1CCC[C@@H](c2c(F)c(F)c(C(N)=O)c3[nH]c(C)c(F)c23)C1 [Compound 8-(1R,3S), 4-((1R,3S)-3-(but-2-ynamido)cyclohexyl)-3,5,6-trifluoro-2-methyl-1H-indole-7-carboxamide]
19 | > 0.01 | CC#CC(=O)N[C@H]1CCC[C@H](c2c(F)c(F)c(C(N)=O)c3[nH]c(C)c(F)c23)C1 [Compound 8-(1S,3S), 4-((1S,3S)-3-(but-2-ynamido)cyclohexyl)-3,5,6-trifluoro-2-methyl-1H-indole-7-carboxamide]
20 | > 0.01 | CC#CC(=O)N[C@H]1CCC[C@@H](c2c(F)c(F)c(C(N)=O)c3[nH]c(C)c(C)c23)C1 [Compound 9-(1R,3S), 4-((1R,3S)-3-(but-2-ynamido)cyclohexyl)-5,6-difluoro-2,3-dimethyl-1H-indole-7-carboxamide]
21 | 0.001 to 0.01 | CC#CC(=O)N[C@H]1CCC[C@H](c2c(F)c(F)c(C(N)=O)c3[nH]c(C)c(C)c23)C1 [Compound 9-(1S,3S), 4-((1S,3S)-3-(but-2-ynamido)cyclohexyl)-5,6-difluoro-2,3-dimethyl-1H-indole-7-carboxamide]
